± gives the expanded uncertainty stated by the source.
Tests used:
[1] = molar heat capacity at constant pressure; conditions: Liquid, Flow calorimetry
[2] = molar heat capacity at constant pressure; wn = mass fraction of the nth substance listed; conditions: Liquid, Flow calorimetry, w2 = 0.995

In the case of CCO [ethanol], the “molar heat capacity at constant pressure” value ([1]; 273.17 K, 100 kPa) is reported as 103.42 ± 2.9 J/K/mol, the “molar heat capacity at constant pressure” value ([1]; 273.17 K, 5000 kPa) is reported as 103.1 ± 2.9 J/K/mol and the “molar heat capacity at constant pressure” value ([1]; 273.17 K, 10000 kPa) is reported as 102.18 ± 2.9 J/K/mol. The “molar heat capacity at constant pressure” value ([1]; 273.17 K, 15000 kPa) was 101.77 ± 2.9 J/K/mol, the “molar heat capacity at constant pressure” value ([1]; 273.17 K, 20000 kPa) was 100.8 ± 2.8 J/K/mol and the “molar heat capacity at constant pressure” value ([1]; 293.16 K, 100 kPa) was 111.62 ± 3.1 J/K/mol. For the same compound, the “molar heat capacity at constant pressure” value ([1]; 293.16 K, 5000 kPa) was 111.02 ± 3.1 J/K/mol, the “molar heat capacity at constant pressure” value ([1]; 293.16 K, 10000 kPa) was 109.97 ± 3.1 J/K/mol and the “molar heat capacity at constant pressure” value ([1]; 293.16 K, 15000 kPa) was 108.95 ± 3 J/K/mol. The “molar heat capacity at constant pressure” value ([1]; 293.16 K, 20000 kPa) was 108.21 ± 3 J/K/mol, the “molar heat capacity at constant pressure” value ([1]; 313.18 K, 100 kPa) was 120.47 ± 3.4 J/K/mol and the “molar heat capacity at constant pressure” value ([1]; 313.18 K, 5000 kPa) was 119.09 ± 3.3 J/K/mol. The “molar heat capacity at constant pressure” value ([1]; 313.18 K, 10000 kPa) was 117.7 ± 3.3 J/K/mol, the “molar heat capacity at constant pressure” value ([1]; 313.18 K, 15000 kPa) was 116.78 ± 3.3 J/K/mol and the “molar heat capacity at constant pressure” value ([1]; 313.18 K, 20000 kPa) was 115.68 ± 3.2 J/K/mol. The “molar heat capacity at constant pressure” value ([1]; 333.19 K, 100 kPa) was 130.65 ± 3.7 J/K/mol, the “molar heat capacity at constant pressure” value ([1]; 333.19 K, 5000 kPa) was 129.73 ± 3.6 J/K/mol and the “molar heat capacity at constant pressure” value ([1]; 333.19 K, 10000 kPa) was 128.35 ± 3.6 J/K/mol. The “molar heat capacity at constant pressure” value ([1]; 333.19 K, 15000 kPa) was 126.83 ± 3.5 J/K/mol and the “molar heat capacity at constant pressure” value ([1]; 333.19 K, 20000 kPa) was 125.91 ± 3.5 J/K/mol.

With COC(F)(F)C(F)(F)C(F)(F)F [heptafluoropropyl methyl ether] the “molar heat capacity at constant pressure” value ([1]; 255.05 K, 100 kPa) was 233.26 ± 3.2 J/K/mol, the “molar heat capacity at constant pressure” value ([1]; 255.06 K, 10000 kPa) was 230.06 ± 3.2 J/K/mol and the “molar heat capacity at constant pressure” value ([1]; 255.06 K, 15000 kPa) was 229.26 ± 3.2 J/K/mol. For the same compound, the “molar heat capacity at constant pressure” value ([1]; 255.08 K, 5000 kPa) was 231.26 ± 3.2 J/K/mol, the “molar heat capacity at constant pressure” value ([1]; 266.01 K, 100 kPa) was 240.27 ± 3.4 J/K/mol and the “molar heat capacity at constant pressure” value ([1]; 266.01 K, 5000 kPa) was 238.67 ± 3.4 J/K/mol. The “molar heat capacity at constant pressure” value ([1]; 266.02 K, 10000 kPa) was 237.06 ± 3.4 J/K/mol, the “molar heat capacity at constant pressure” value ([1]; 266.03 K, 15000 kPa) was 236.46 ± 3.4 J/K/mol and the “molar heat capacity at constant pressure” value ([1]; 275.04 K, 100 kPa) was 245.47 ± 3.4 J/K/mol. For the same compound, the “molar heat capacity at constant pressure” value ([1]; 275.04 K, 15000 kPa) was 241.27 ± 3.4 J/K/mol, the “molar heat capacity at constant pressure” value ([1]; 275.05 K, 5000 kPa) was 244.27 ± 3.4 J/K/mol and the “molar heat capacity at constant pressure” value ([1]; 275.11 K, 10000 kPa) was 242.47 ± 3.4 J/K/mol. The “molar heat capacity at constant pressure” value ([1]; 284.81 K, 100 kPa) was 251.87 ± 3.6 J/K/mol, the “molar heat capacity at constant pressure” value ([1]; 284.81 K, 5000 kPa) was 250.07 ± 3.6 J/K/mol and the “molar heat capacity at constant pressure” value ([1]; 284.86 K, 10000 kPa) was 248.67 ± 3.6 J/K/mol. For the same compound, the “molar heat capacity at constant pressure” value ([1]; 284.94 K, 15000 kPa) was 247.47 ± 3.4 J/K/mol, the “molar heat capacity at constant pressure” value ([1]; 294.05 K, 100 kPa) was 257.67 ± 3.6 J/K/mol and the “molar heat capacity at constant pressure” value ([1]; 294.07 K, 5000 kPa) was 255.47 ± 3.6 J/K/mol. For the same compound, the “molar heat capacity at constant pressure” value ([1]; 294.08 K, 10000 kPa) was 254.47 ± 3.6 J/K/mol and the “molar heat capacity at constant pressure” value ([1]; 294.1 K, 15000 kPa) was 253.67 ± 3.6 J/K/mol.

With COC(F)(F)C(F)(C(F)(F)F)C(F)(F)F [methyl nonafluoroisobutyl ether] + COC(F)(F)C(F)(F)C(F)(F)C(F)(F)F the “molar heat capacity at constant pressure” value ([2]; 253.15 K, 5000 kPa) was 209.05 ± 3 J/K/mol, the “molar heat capacity at constant pressure” value ([2]; 253.16 K, 10000 kPa) was 207.55 ± 2.5 J/K/mol and the “molar heat capacity at constant pressure” value ([2]; 253.16 K, 15000 kPa) was 205.55 ± 3 J/K/mol. For the same compound, the “molar heat capacity at constant pressure” value ([2]; 253.17 K, 100 kPa) was 214.05 ± 3 J/K/mol, the “molar heat capacity at constant pressure” value ([2]; 264.15 K, 15000 kPa) was 227.11 ± 3.2 J/K/mol and the “molar heat capacity at constant pressure” value ([2]; 264.16 K, 5000 kPa) was 230.61 ± 3.3 J/K/mol. For the same compound, the “molar heat capacity at constant pressure” value ([2]; 264.17 K, 100 kPa) was 232.86 ± 3.3 J/K/mol, the “molar heat capacity at constant pressure” value ([2]; 264.18 K, 10000 kPa) was 228.61 ± 3.2 J/K/mol and the “molar heat capacity at constant pressure” value ([2]; 274.59 K, 15000 kPa) was 249.36 ± 3.5 J/K/mol. For the same compound, the “molar heat capacity at constant pressure” value ([2]; 274.63 K, 100 kPa) was 257.81 ± 3.8 J/K/mol, the “molar heat capacity at constant pressure” value ([2]; 274.63 K, 5000 kPa) was 252.81 ± 3.5 J/K/mol and the “molar heat capacity at constant pressure” value ([2]; 274.63 K, 10000 kPa) was 250.86 ± 3.5 J/K/mol. The “molar heat capacity at constant pressure” value ([2]; 284.25 K, 10000 kPa) was 273.79 ± 3.9 J/K/mol, the “molar heat capacity at constant pressure” value ([2]; 284.26 K, 100 kPa) was 278.04 ± 3.9 J/K/mol and the “molar heat capacity at constant pressure” value ([2]; 284.27 K, 5000 kPa) was 275.79 ± 3.9 J/K/mol. The “molar heat capacity at constant pressure” value ([2]; 284.3 K, 15000 kPa) was 272.29 ± 3.8 J/K/mol, the “molar heat capacity at constant pressure” value ([2]; 294.09 K, 5000 kPa) was 297.5 ± 4.2 J/K/mol and the “molar heat capacity at constant pressure” value ([2]; 294.09 K, 10000 kPa) was 294.82 ± 4.3 J/K/mol. The “molar heat capacity at constant pressure” value ([2]; 294.1 K, 100 kPa) was 300.52 ± 4.2 J/K/mol, the “molar heat capacity at constant pressure” value ([2]; 294.13 K, 15000 kPa) was 294 ± 4.2 J/K/mol and the “molar heat capacity at constant pressure” value ([2]; 303.94 K, 10000 kPa) was 317.35 ± 4.5 J/K/mol. For the same compound, the “molar heat capacity at constant pressure” value ([2]; 303.95 K, 100 kPa) was 321.61 ± 4.5 J/K/mol, the “molar heat capacity at constant pressure” value ([2]; 303.96 K, 5000 kPa) was 319.35 ± 4.5 J/K/mol and the “molar heat capacity at constant pressure” value ([2]; 303.96 K, 15000 kPa) was 315.85 ± 4.5 J/K/mol. For the same compound, the “molar heat capacity at constant pressure” value ([2]; 314.92 K, 100 kPa) was 347.39 ± 4.9 J/K/mol, the “molar heat capacity at constant pressure” value ([2]; 314.92 K, 5000 kPa) was 345.14 ± 4.9 J/K/mol and the “molar heat capacity at constant pressure” value ([2]; 314.92 K, 10000 kPa) was 342.34 ± 4.8 J/K/mol. The “molar heat capacity at constant pressure” value ([2]; 314.92 K, 15000 kPa) was 340.08 ± 5 J/K/mol, the “molar heat capacity at constant pressure” value ([2]; 323.71 K, 100 kPa) was 374.09 ± 5.3 J/K/mol and the “molar heat capacity at constant pressure” value ([2]; 323.72 K, 5000 kPa) was 369.47 ± 5.2 J/K/mol. The “molar heat capacity at constant pressure” value ([2]; 323.73 K, 10000 kPa) was 367.47 ± 5.2 J/K/mol and the “molar heat capacity at constant pressure” value ([2]; 323.74 K, 15000 kPa) was 364.84 ± 5.3 J/K/mol.

From the NIST ThermoML archive (doi:10.1016/j.fluid.2016.06.024)
